Results: the supplement of paper PMC10307832

How the values were obtained:
Test in all cases: relative viability (nuclei count vs DMSO), 5 days (fraction); higher = more cells survive
NVP-TAE684 + Decitabine = compound: COc1cc(N2CCC(N3CCN(C)CC3)CC2)ccc1Nc1ncc(Cl)c(Nc2ccccc2S(=O)(=O)C(C)C)n1 [NVP-TAE684] + Nc1ncn([C@H]2C[C@H](O)[C@@H](CO)O2)c(=O)n1 [Decitabine] (partner 2 µM)
In short: (§1)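 Cells from lung cancer lines were seeded into 1536-well plates and, one day later, dosed by pin tool. Treatments were either a single drug or a fixed dose of an anchor drug with five library-drug doses (not always all listed) in √10 steps. After 5 days, nuclei were stained in a one-step fixation (final 0.05% Triton X-100, 1% formaldehyde, 1 ug/ml Hoechst) and counted on 4× images, and relative viability is the treated-to-vehicle nuclei ratio, as the median of duplicate plates.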

Vandetanib + Pemetrexed = compound: COc1cc2/c(=N/c3ccc(Br)cc3F)nc[nH]c2cc1OCC1CCN(C)CC1 [Vandetanib] + Nc1nc2[nH]cc(CCc3ccc(C(=O)N[C@@H](CCC(=O)O)C(=O)O)cc3)c2c(=O)[nH]1 [Pemetrexed] (partner 0.2 µM)
In short: as §1

[1] = compound: C1=CC=C2C(=C1)N=C(S2)C(C#N)C3=NC(=NC=C3)NCCC4=CN=CC=C4 + CC(C)C[C@H](NC(=O)[C@H](Cc1ccccc1)NC(=O)c1cnccn1)B(O)O [Bortezomib] (partner 0.002 µM)
In short: as §1

CUDC-101 + AZD7762 = compound: C#Cc1cccc(Nc2ncnc3cc(OC)c(OCCCCCCC(=O)NO)cc23)c1 [CUDC-101] + NC(=O)Nc1cc(-c2cccc(F)c2)sc1C(=O)N[C@H]1CCCNC1 [AZD7762] (partner 0.2 µM)
In short: as §1

Row | Cell Line | relative viability (NVP-TAE684 + Decitabine; first compound 0.2 µM) | relative viability (NVP-TAE684 + Decitabine; first compound 0.6325 µM) | relative viability (NVP-TAE684 + Decitabine; first compound 2 µM) | relative viability (Vandetanib + Pemetrexed; first compound 0.02 µM) | relative viability (Vandetanib + Pemetrexed; first compound 0.06325 µM) | relative viability (Vandetanib + Pemetrexed; first compound 0.2 µM) | relative viability (Vandetanib + Pemetrexed; first compound 0.6325 µM) | relative viability (Vandetanib + Pemetrexed; first compound 2 µM) | relative viability ([1]; first compound 0.005 µM) | relative viability ([1]; first compound 0.01581 µM) | relative viability ([1]; first compound 0.05 µM) | relative viability ([1]; first compound 0.1581 µM) | relative viability ([1]; first compound 0.5 µM) | relative viability (CUDC-101 + AZD7762; first compound 0.01 µM) | relative viability (CUDC-101 + AZD7762; first compound 0.03162 µM) | relative viability (CUDC-101 + AZD7762; first compound 0.1 µM) | relative viability (CUDC-101 + AZD7762; first compound 0.3162 µM) | relative viability (CUDC-101 + AZD7762; first compound 1 µM)
1 | EMC-BAC-2 | 0.978 | 0.946 | 0.708 | 0.473 | 0.44 | 0.448 | 0.427 | 0.459 | 0.998 | 1.05 | 1.06 | 1.12 | 0.945 | 1.08 | 1.09 | 1.06 | 0.947 | 0.443
2 | NCI-H1437 | 0.596 | 0.548 | 0.474 | 0.308 | 0.306 | 0.307 | 0.319 | 0.304 | 0.475 | 0.569 | 0.848 | 0.652 | 0.429 | 1.1 | 1 | 1.11 | 1.2 | 1.05
3 | NCI-H1944 | 0.437 | 0.519 | 0.413 | 0.615 | 0.566 | 0.682 | 0.564 | 0.58 | – | – | – | – | – | 0.503 | 0.466 | 0.44 | 0.311 | 0.198
4 | NCI-H838 | 0.456 | 0.464 | 0.314 | 0.242 | 0.243 | 0.251 | 0.232 | 0.237 | 0.641 | 0.834 | 0.841 | 1.05 | 0.752 | 0.939 | 0.907 | 0.94 | 0.952 | 0.888
5 | HCC-827 | 0.301 | 0.279 | 0.311 | 0.245 | 0.241 | 0.263 | 0.173 | 0.171 | 0.999 | 1.04 | 1.09 | 1.15 | 1.06 | 0.206 | 0.145 | 0.13 | 0.117 | 0.113
6 | NCI-H2342 | 0.727 | 0.835 | 0.632 | 0.728 | 0.832 | 0.77 | 0.801 | 0.668 | – | – | – | – | – | 0.507 | 0.459 | 0.51 | 0.407 | 0.353
7 | LOU-NH91 | 0.801 | 0.782 | 0.645 | 0.413 | 0.381 | 0.391 | 0.442 | 0.431 | 0.492 | 0.515 | 0.507 | 0.464 | 0.43 | 0.754 | 0.751 | 0.741 | 0.798 | 0.556
8 | NCI-H3122 | 0.152 | 0.109 | 0.103 | 0.192 | 0.196 | 0.201 | 0.202 | 0.208 | 0.877 | 1.05 | 0.958 | 1.05 | 1.07 | 0.998 | 0.951 | 1 | 1.04 | 1.06
9 | NCI-H1563 | – | – | – | 0.75 | 0.732 | 0.755 | 0.678 | 0.755 | 0.808 | 0.769 | 0.886 | 0.873 | 0.798 | – | – | – | – | –
10 | NCI-H1734 | 0.466 | 0.347 | 0.432 | 0.4 | 0.388 | 0.41 | 0.404 | 0.467 | 0.789 | 0.895 | 0.912 | 1.07 | 0.831 | 0.521 | 0.433 | 0.462 | 0.312 | 0.182
11 | EPLC-272H | 0.326 | 0.357 | 0.299 | 0.447 | 0.299 | 0.399 | 0.341 | 0.287 | 0.772 | 0.777 | 0.958 | 1.03 | 0.738 | 0.187 | 0.139 | 0.175 | 0.109 | 0.115
12 | RERF-LC-KJ | 0.689 | 0.574 | 0.3 | 0.46 | 0.459 | 0.497 | 0.418 | 0.46 | 1.02 | 1.12 | 0.971 | 1.16 | 0.905 | 1.01 | 0.971 | 1.18 | 0.922 | 0.608
13 | EBC-1 | – | – | – | – | – | – | – | – | 0.52 | 0.545 | 0.544 | 0.666 | 0.504 | – | – | – | – | –
14 | HARA | 0.664 | 0.55 | 0.234 | 0.246 | 0.239 | 0.243 | 0.203 | 0.213 | 1.22 | 1.04 | 1.14 | 1.18 | 0.859 | 0.31 | 0.507 | – | 0.24 | 0.131
15 | NCI-H2009 | 0.372 | 0.34 | 0.345 | 1.02 | 1.14 | 0.99 | 0.986 | 1.05 | 0.936 | 0.906 | 1.03 | 1.08 | 0.993 | – | – | – | – | –
16 | NCI-H2170 | 0.472 | 0.477 | 0.418 | 0.278 | 0.249 | 0.265 | 0.262 | 0.268 | – | – | – | – | – | 1.07 | 0.839 | 0.819 | 0.892 | 0.723
17 | NCI-H1648 | 0.39 | 0.449 | 0.27 | 0.568 | 0.691 | 0.652 | 0.995 | 0.714 | – | – | – | – | – | 0.846 | 0.566 | 0.646 | 0.45 | 0.361
